Entries after “also recorded” stand apart in the source; their conditions may differ.
Tests used:
[1] = Evaluation of organoleptic characteristics of the granulate vs iron fumarate (Example II); assay type: in vivo, human; conditions: score 1 (intolerable) to 5 (highly tolerable); one score per participant, 4 subjects; amount equivalent to 14 mg elemental iron
Protocol: A portion of the granulate described in Example I and a portion of commercially available iron fumarate, both equivalent to 14 mg of elemental iron (100% of Nutrient Reference Value—EU Reg. 1169/2011) were weighed separately using known procedures.
The following trial protocol was used to evaluate the organoleptic characteristics of the two samples compared.
Each of the compositions listed in Table II above was tested on a group of 4 subjects. The inclusion criteria for admission to the test were solely ethical: the subjects had to be over the age of majority, healthy, and not suffering from any taste and/or iron metabolism alterations correlated with disorders and/or illnesses.
Each subject independently tasted first one and then the other sample of the example, maintaining a suitable time interval (at least 2 hours) between one tasting and the next, and rinsing their mouth, so that the evaluation of each administration was not influenced by the previous one.
On each tasting, the following parameters were evaluated: metallic odour and flavour, gastrointestinal tolerability, aftertaste, and staining of teeth, tongue and/or palate. […]

[2] = in words; cited from earlier work
[3] = in words; cited from earlier work; remark: listed apart in the source
[4] = Comparative iron release profile, simulated gastrointestinal conditions, ICP-OES; assay type: physicochemical; conditions: sample equivalent to 30 mg elemental iron, HCl 0.1N then pH 6.8, 37°C
Protocol: The release profile and bioavailability of the composition according to the invention were analysed and measured by comparison with iron sulphate (the preferred form for pharmacological treatment) using an in vitro system, under conditions simulating the gastrointestinal environment.
The tests were conducted according to methods published in the international scientific literature and internally validated.
For the measurement of the comparative release profile, amounts of the two test samples were first weighed, both equivalent to 30 mg of elemental iron. The samples were initially placed in contact with a solution of HCl (0.1N) and incubated at a temperature of 37±0.5° C. A solution of Na2HPO4 was then added to the samples to buffer the pH to a value of 6.8. Said conditions were maintained throughout the remainder of the experiment. To evaluate the release profile of the iron, the two samples were centrifuged at 10,000 rpm at pre-set time intervals such as 1, 2, 4, 6 and 24 h. At the end of centrifugation the samples were taken up and analysed to evaluate the iron release profiles. The iron determination analyses were conducted with the ICP-OES THERMO FISHER ICAP 6300.

[5] = In vitro bioavailability study, dialysis membrane method with simulated buccal, gastric and intestinal digestion; assay type: in vitro ADME
Protocol: The in vitro bioavailability study was conducted by the dialysis membrane method. Said method, by its nature, is based on the physicochemical characteristics of the environments wherein the desired substance passes from one compartment to the other, and takes no account of any active mechanisms or biological interaction. The method involves three successive simulated digestion stages: buccal digestion in the presence of amylase, gastric digestion in the presence of pepsin, and finally, intestinal digestion in the presence of pancreatin.
In order to simulate buccal digestion, suitable amounts of the test samples were placed in contact with 10 mg of amylase and 1.5 mL of PBS at pH 6.9 (10^-3 M). The resulting mixtures were inserted into dialysis membranes (Spectrum Laboratories Inc., USA, MWCO: 12-14,000 Daltons), tightly closed at each end and immersed in vials containing PBS at pH 6.9. The samples were then incubated at a temperature of 37±0.5° C. for 5 minutes.
After incubation, HCl (0.85N), pepsin and a solution of NaN3 (0.04% w/w) were added to the open membranes. The membranes were closed, placed in vials containing HCl (0.85N), and incubated at 37±0.5° C. for 2 h.
After said 2 h period, a solution of NaHCO3 (0.8 M) and pancreatin was added. The closed membranes were placed in vials containing PBS at pH 7.0, and incubated at a temperature of 37±0.5° C. for a further 4 h.
To evaluate the in vitro bioavailability of the iron, the solution contained in the vials was taken up after each digestion step, and the samples were analysed with an ICP-OES THERMO FISHER ICAP 6300.
Bioavailability is defined as the percentage of iron recovered in the bioaccessible fraction after in vitro digestion, in relation to the original undigested sample, and calculated with the equation: (bioaccessible fraction/total content)×100%.

Structure (SMILES) | Gastrointestinal tolerability [1] | Water solubility compared with iron sulphate [2] | Iron release compared with iron sulphate [3] | Iron released ([4]; 1 h) | Iron released ([4]; 2 h) | Iron released ([4]; 4 h) | Bioaccessible fraction, buccal digestion ([5]; amylase, PBS pH 6.9, 37°C, 5 minutes) | Bioaccessible fraction, intestinal digestion ([5]; pancreatin, NaHCO3, PBS pH 7.0, 37°C, 4 h) | Bioaccessible fraction, gastric digestion ([5]; pepsin, HCl 0.85N, 37°C, 2 h)
O=C([O-])/C=C/C(=O)[O-].[Fe+2] [Sample B, Iron fumarate] | Gastrointestinal tolerability: 5; also recorded: Gastrointestinal tolerability: 3 | far less water-soluble than iron sulphate | generically lower iron release than iron sulphate | – | – | – | – | – | –
O=S(=O)([O-])[O-].[Fe+2] [Ferrous sulphate] | – | – | – | 84.16 ± 1.07 | 85.22 ± 0.98 | 100.03 ± 0.20 | 8.61 ± 0.73 | 7.16 ± 0.41 | 65.81 ± 1.39

Source: patent publication US20230329308A1, “COMPOSITIONS COMPRISING A MINERAL SALT FOR ORAL USE” (DIFASS INTERNATIONAL S.P.A., priority 2020, published 2023)
